Where a SMILES comes first, the peptide text is derived from it. The star is where a group is joined. Cbz = O=C(OCc1ccccc1)*
Tested on: HIF-1α
Test: Western blot of HIF-1α expression in HCT116 cells
Type: cell-based
Conditions: for HIF-1α expression / HIF-1α expression increased by Smurf2 knockdown, effect of treatment: HCT116 cells; for HIF-1α expression: normoxia; for HIF-1α expression increased by Smurf2 knockdown, effect of treatment: Smurf2 siRNA 48 hours, normoxia 6 hours, Ro3306 5 μM, palbociclib 10 μM, abemaciclib 1 μM
Method: HCT116 cells were obtained from American Type Culture Collection (ATCC) and were maintained according to ATCC recommendation in McCoy's 5A medium (Hyclone) with 10% fetal bovine serum (FBS) (Hyclone) and 1% penicillin/streptomycin (P/S) (Corning). Cells were regularly tested for mycoplasma and authenticated. Cells were maintained at 37° C. in 5% CO2. Hypoxia treatment was performed in a hypoxia chamber (In vivo2, Ruskinn) which maintains 0.5% O2 and 5% CO2 at 37° C.
Plasmid expression was performed by 24 hours transfection using Opti-MEM (Thermo Fisher Scientific) and Lipofectamine 2000 (Life Technologies). Knockdown experiments were performed by siRNA transfection for 48 hours with Opti-MEM and Lipofectamine RNAiMAX (Life Technologies), according to the manufacturer's protocol.
Treated cells were lysed in RIPA buffer (Sigma). Protein concentrations were determined using a BCA Protein Assay Kit (Life Technologies). Equal amounts of total protein were boiled with NuPAGE™ LDS sample buffer (Thermo Fisher Scientific) and reducing agent (Invitrogen) or 2-mercaptoethanol. Samples were analyzed with SDS-PAGE. Proteins were transferred to an Immobilon-P PVDF membrane (EMD Millipore). Primary and secondary antibodies were added in order. Signals were detected after addition of the ECL western blotting substrate (Thermo Fisher Scientific).

SMILES | HIF-1α expression upon Smurf2 overexpression (HCT116 cells transfected with myc-Smurf2 plasmid, 6 hours, dose-dependent) | HIF-1α expression (2 μM, 6 hours) | HIF-1α expression (5 μM, 6 hours) | HIF-1α expression increased by Smurf2 knockdown, effect of treatment | HIF-1α expression increased by Smurf2 knockdown, effect of treatment (listed as Ro3306)
CC(C)C[C@@H](C=O)NC(=O)[C@H](CC(C)C)NC(=O)[C@H](CC(C)C)NC(=O)OCc1ccccc1 [MG132] (Cbz-Leu-Leu-Leu-aldehyde) | partially rescued | increased | more robustly |  | 
O=C1NC(=NCc2cccs2)S/C1=C\c1ccc2ncccc2c1 [Ro-3306] |  |  |  | not reversed | further increased

Reference: US20230183356A1, “HIF-1a MODULATORS AND USES THEREOF” (Brown University, priority 2021, published 2023)
